The values that follow come from patent US12161753B2, “Sustained release biodegradable intracanalicular inserts comprising a hydrogel and an active agent” (OCULAR THERAPEUTIX, INC., priority 2020, dated 2024).

Several values for one entry are separate records, joined by “and”; a condition that tells them apart may be missing. Identical values can stand only once. Like-named read-outs stand apart in the source and are kept apart here.

The conditions of data set [1]: for Cyclosporine per insert (left in removed insert), OD: beagles, initial dose 671±13 μg.
The next data set relates to immunomodulation. As to conditions: Tang-Liu and Acheampong, Clin. Pharmacokinet. 44(3); cited from earlier work.
The conditions of data set [2]: beagle, insert 0.7 mg cyclosporine, 4a20K SAZ/trilysine.
A short description of data set [3]: Particle size of cyclosporine by laser diffraction (effect of surfactants). The data set is classed as physicochemical. As to conditions: no surfactant.
A short description of data set [4]: Example 3.2 proof-of-concept PK study: tear fluid concentration and drug released from inserts. As to conditions: beagle; insert 0.44 mg cyclosporine, 4a20K SG/trilysine; over 32 days. The data set is classed as in vivo, beagle dogs. An excerpt: Inserts were removed at 32 days to determine the amount of remaining drug compared to the administered dose.

`CC=CCC(C)C(O)C1C(=O)NC(CC)C(=O)N(C)CC(=O)N(C)C(CC(C)C)C(=O)NC(C(C)C)C(=O)N(C)C(CC(C)C)C(=O)NC(C)C(=O)NC(C)C(=O)N(C)C(CC(C)C)C(=O)N(C)C(CC(C)C)C(=O)N(C)C(C(C)C)C(=O)N1C` (centres unmarked) [Cyclosporine, 30-ethyl-33-(1-hydroxy-2-methylhex-4-enyl)-1,4,7,10,12,15,19,25,28-nonamethyl-6,9,18,24-tetrakis(2-methylpropyl)-3,21-di(propan-2-yl)-1,4,7,10,13,16,19,22,25,28,31-undecazacyclotritriacontane-2,5,8,11,14,17,20,23,26,29,32-undecone]: the Released amount in data set [1] (beagle, insert 0.67 mg cyclosporine, 4a20K SG/trilysine, 28 days) stood at 3.4 µg; in data set [1] (beagle, insert 0.67 mg cyclosporine, 4a20K SG/trilysine, 50 days), 3.5 µg. In addition, the “Daily estimated delivered dose” value in data set [1] (beagle, insert 0.67 mg cyclosporine, 4a20K SG/trilysine, over 28 and 50 days) is on record as “approximately 3.5 μg/day”. The “Cyclosporine per insert (left in removed insert), OD” value was 596 µg in data set [1] (insert removed at Day 28, single inserts); 451 µg and 520 µg and 521 µg in data set [1] (insert removed at Day 50, single inserts). The “Cyclosporine concentration considered to be required for immunomodulation” value with immunomodulation is 0.236 µg/mL. Besides, in data set [2] (inserts removed at 6 weeks), the “Average amount of cyclosporine released in 6 weeks” value stood at 0.37 mg. For the same compound, the “Estimated daily delivered dose” value in data set [2] (over 6 weeks) is 8.8 µg/day; in data set [4] it was 6.3 µg/day. The “D10 [Average]” value came to 4 μm in data set [3] (in DIW) and 4.1 μm in data set [3] (in PBS).
